Experimental data from the NIST ThermoML archive (doi:10.1016/j.fluid.2016.05.024).

Test: mn = molality of the nth substance listed, in mol/kg
Settings: 87 kPa, Liquid, Vibrating tube method

CCn1cc[n+](C)c1.[Cl-] [1-ethyl-3-methylimidazolium chloride] + O
mass density [kg/m3]
Settings	m1 = 0.0532	m1 = 0.1024	m1 = 0.1528	m1 = 0.2049	m1 = 0.2529	m1 = 0.3082	m1 = 0.3571	m1 = 0.4077	m1 = 0.459	m1 = 0.5026
293.15 K	998.82	999.41	1000.01	1000.63	1001.2	1001.84	1002.41	1002.99	1003.56	1004.05
298.15 K	997.66	998.23	998.82	999.43	999.98	1000.61	1001.17	1001.73	1002.29	1002.77
303.15 K	996.25	996.81	997.39	997.98	998.52	999.14	999.68	1000.24	1000.79	1001.26
308.15 K	994.62	995.17	995.74	996.32	996.85	997.46	997.99	998.53	999.08	999.54
313.15 K	992.79	993.34	993.9	994.48	995.01	995.61	996.13	996.67	997.21	997.67

CCn1cc[n+](C)c1.O=S(=O)([O-])O [1-ethyl-3-methylimidazolium hydrogen sulfate] + O
mass density [kg/m3]
Settings	m1 = 0.0528	m1 = 0.1003	m1 = 0.1503	m1 = 0.2034	m1 = 0.253	m1 = 0.303	m1 = 0.3548	m1 = 0.4046	m1 = 0.453	m1 = 0.5055
293.15 K	1000.86	1003.08	1005.3	1007.57	1009.63	1011.67	1013.72	1015.68	1017.53	1019.54
298.15 K	999.65	1001.82	1003.99	1006.22	1008.23	1010.23	1012.24	1014.17	1016	1017.98
303.15 K	998.2	1000.33	1002.46	1004.64	1006.63	1008.6	1010.58	1012.47	1014.26	1016.21
308.15 K	996.54	998.63	1000.73	1002.87	1004.82	1006.76	1008.7	1010.58	1012.34	1014.25
313.15 K	994.68	996.73	998.8	1000.91	1002.83	1004.74	1006.66	1008.5	1010.24	1012.13
